# Laboratory results as given in patent US20120251495A1, “PTERIN BASED THERAPIES FOR INFLAMMATORY CONDITIONS” (priority 2008, published 2012).
# Tests used:
# IDO = target: T1, IDO (Homo sapiens, UniProt P14902); experiment: IDO inhibition in vitro with human PBMCs (kynurenine production); format: cell-based
# T1 construct: endogenous in cells; host or cells: human PBMCs (peripheral blood mononuclear cells), unstimulated or PHA-stimulated
# Protocol: The purpose of this in vitro study was to measure the IC50 values of IDO in PBMCs for 1) calcium pterin, CaCl2, and pterin to determine measurable synergistic effects between Ca^+2 and pterin, and 2) to compare these values with those of DCP for the assessment of relative IDO inhibitory strength. IC50 (μM) values for IDO inhibition by (1:4 mol:mol) calcium pterin, DCP, CaCl2, and pterin were determined in vitro with human PBMCs (both PHA-stimulated and unstimulated) by measuring kynurenine production as previously described (Winkler et al., 2006).
# hepatitis B virus (HBV) [1] = experiment: Liver HBV DNA by Southern blot hybridization in HBV transgenic mice; format: in vivo
# Text: Animals. Homozygous adult female and male transgenic HBV mice were used (20.6±2.8 g). The mice were originally obtained from Dr. Frank Chisari (Scripps Research Institute, La Jolla, Calif.) (Guidotti L G, Matzke B, Schaller H & Chisari F V. High-level hepatitis B virus replication in transgenic mice. J Virol 1995; 69:6158-6169) and were subsequently raised in the Biosafety Level 3 (BL-3) area of the AAALAC-accredited USU Laboratory Animal Research Center (LARC). The animals were derived from founder 1.3.32 (Guidotti L G, Matzke B, Schaller H & Chisari F V. High-level hepatitis B virus replication in transgenic mice. J Virol 1995; 69:6158-6169). This study was conducted in accordance with the approval of the Institutional Animal Care and Use Committee of Utah State University.
# (§1) Experimental design. DCP was administered per os, once daily for 14 days to randomly assigned HBV transgenic mice at 23, 7.3, and 2.3 mg/(kg d). ADV was used as a positive control at 10 mg/(kg d) using the same treatment schedule and vehicle (0.4% CMC). On day 14, mice were euthanized to collect serum and liver samples to perform liver HBV DNA, liver core and serum HBe assays, serum cytokine/chemokine profiles, and IDO metabolite assays.
# Liver HBV DNA assays. Southern blot hybridization and quantitative PCR (qPCR) were performed on liver tissues (Morrey J D, Motter N E, Tam B, Lay M & Fairman J. Efficacy of cationic lipid-DNA complexes (CLDC) on hepatitis B virus in transgenic mice. Antiviral Res 2008; 79:71-79). For Southern blot hybridization, the ratio of the viral DNA bands to the transgene band was used to determine the concentration of viral DNA per host DNA. This calculation was based upon the knowledge that there were 1.3 copies of the transgene present per host cell with this line of transgenic mice. The transgene was used as an internal indicator to calculate the pg of HBV DNA per μg of homozygous cellular host DNA. For qPCR, the assay was run with a series of 10-fold dilutions of pooled liver DNA from HBV transgenic mice to obtain a standard curve. Mean C(t) values were obtained for duplicates of each sample. The mean C(t) values of each sample were used to obtain the log relative DNA values using a formula of the fit line of the standard curve.
# hepatitis B virus (HBV) [2] = experiment: Liver HBV DNA by quantitative PCR in HBV transgenic mice; format: in vivo; settings: female HBV mice; 23.0 mg/(kg day), per os 14 days
# [3] = tested on: hepatitis B core antigen (HBcAg); experiment: Liver HBcAg assay in HBV transgenic mice; format: in vivo; settings: 2.3 mg/(kg d)
# Protocol: as §1
# Liver HBcAg assay. Liver biopsies were processed for detection of hepatitis B core antigen (HBcAg) (Motley J D, Motter N E, Taro B, Lay M & Fairman J. Efficacy of cationic lipid-DNA complexes (CLDC) on hepatitis B virus in transgenic mice. Antiviral Res 2008; 79:71-79). Three different parameters were obtained from each tissue section. […] The first two parameters were obtained by counting cells surrounding central veins as follows: the total number of cells, the number of cells with stained nuclei, and the number of cells with stained cytoplasms. The identities of the samples were blinded to person counting. The stained nuclei counts or the stained cytoplasm counts were divided by the total cells. Three central vein areas were counted for each slide sample. For the third parameter, a field not in a central vein area was counted for the total number of stained nuclei. One-quarter of the field was counted. Three such fields were counted per liver section. The identity of the samples was blinded to the person reading the slides.
# [4] = Theoretical body fluid level calculated from dose; settings: 69 mg/kg ÷ 0.7 L/kg ÷ 454.4 mg/mmol; mouse
# Protocol: DCP at the highest dose tested in mice in this study, 69 mg/kg, yields the following theoretical body fluid level: [DCP]fluid=69 mg/kg÷0.7 L/kg÷454.4 mg/mmol=220 μM.
# [5] = tested on: spontaneous mammary gland tumors; settings: C3H/HeN-MTV+ mice; Moheno, 2004; cited from earlier work
# [6] = tested on: indoleamine 2,3-dioxygenase (IDO); experiment: Plasma tryptophan and kynurenine by HPLC (IDO activity), 1st experiment; format: in vivo, athymic nude (nu/nu) mice; settings: for Kynurenine / Tryptophan / Kyn/Trp: plasma; for Kynurenine / Tryptophan: HPLC; for Kyn/Trp: estimate of IDO activity
# Protocol: Cytokine levels in EDTA plasma from the mice in the 1st experiment were determined by ELISA assay at Alta Analytical Laboratories (San Diego, Calif.) using a LINCOplex Kit (Linco Research). Tryptophan (Trp) and kynurenine (Kyn) concentrations were measured from EDTA plasma samples by high pressure liquid chromatography (HPLC) using 3-nitro-L-tyrosine as the internal standard (Widner et al., 1997). To estimate IDO activity, the kynurenine to tryptophan ratio (Kyn/Trp) was calculated and expressed as μmol kynurenine/mmol tryptophan (Wirleitner, 2003). The values from five mice in the 1st experiment are not included in the summary statistics given in Table 1 for the following reasons. One mouse from each of the four treatment groups was used to test the effects of mega dosing, i.e., with (1:4 mol:mol) calcium pterin at 100 mg/kg/day after Day 60 of treatment, and are excluded. Also excluded was one mouse from the (1:4 mol:mol) calcium pterin (7 mg/kg/day) group which expired suddenly a few days before blood was collected. Cytokine measurements <3.2 pg/ml are reported as n.d. (not detectable) because the standard curves used in the ELISA assays were not calibrated below that level.
# T1 sequence (P14902 whole entry): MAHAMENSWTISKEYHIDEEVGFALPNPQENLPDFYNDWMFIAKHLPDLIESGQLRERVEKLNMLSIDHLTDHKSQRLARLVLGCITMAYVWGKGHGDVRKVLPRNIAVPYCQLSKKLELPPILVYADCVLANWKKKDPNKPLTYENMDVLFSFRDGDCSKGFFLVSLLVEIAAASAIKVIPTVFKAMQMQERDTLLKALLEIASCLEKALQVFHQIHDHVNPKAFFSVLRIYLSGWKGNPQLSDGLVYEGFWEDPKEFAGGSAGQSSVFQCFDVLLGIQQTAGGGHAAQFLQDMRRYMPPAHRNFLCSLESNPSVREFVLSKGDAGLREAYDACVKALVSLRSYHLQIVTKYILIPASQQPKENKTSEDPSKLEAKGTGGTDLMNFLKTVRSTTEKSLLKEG
Molecule,IC50 (IDO; PHA stimulated per Table 3) [µM],IC50 (IDO; unstimulated per Table 3) [µM],"Liver HBV DNA (Southern), Female levels (mean ± SEM) (hepatitis B virus (HBV) [1]; 2.3 mg/(kg d)) [pg/µg]","Liver HBV DNA (Southern), Female levels (mean ± SEM) (hepatitis B virus (HBV) [1]; 7.3 mg/(kg d)) [pg/µg]","Liver HBV DNA (Southern), Female levels (mean ± SEM) (hepatitis B virus (HBV) [1]; 23.0 mg/(kg d)) [pg/µg]","Liver HBV DNA (Southern), Male levels (mean ± SEM) (hepatitis B virus (HBV) [1]; 2.3 mg/(kg d)) [pg/µg]","Liver HBV DNA (Southern), Male levels (mean ± SEM) (hepatitis B virus (HBV) [1]; 7.3 mg/(kg d)) [pg/µg]","Liver HBV DNA (Southern), Male levels (mean ± SEM) (hepatitis B virus (HBV) [1]; 23.0 mg/(kg d)) [pg/µg]",Log HBV DNA (PCR) versus controls (hepatitis B virus (HBV) [2]),"HBcAg Stained nuclei/total, Female levels (mean ± SEM) ([3]; female)","HBcAg Stained nuclei/total, Male levels (mean ± SEM) ([3]; male)",theoretical body fluid level [DCP]fluid [4] [µM],activity against spontaneous mammary gland tumors [5],Kynurenine ([6]; 7 mg/kg/day) [µM],Tryptophan ([6]; 7 mg/kg/day) [µM],Kyn/Trp ([6]; 7 mg/kg/day) [μmol/mmol],Kynurenine ([6]; 21 mg/kg/day) [µM],Tryptophan ([6]; 21 mg/kg/day) [µM],Kyn/Trp ([6]; 21 mg/kg/day) [μmol/mmol],plasma kynurenine response to dosage (ACIP model) ([6]; stepwise regression)
"Nc1nc([O-])c2nccnc2n1.Nc1nc([O-])c2nccnc2n1.[Ca+2] [DCP, dipterinyl calcium pentahydrate]",320,470,12.7 ± 1.9,17.3 ± 3.5,10.6 ± 1.6,46.4 ± 10.8,50.4 ± 10.3,36.0 ± 10.6,significant treatment decreases,0.36 ± 0.046,0.51 ± 0.041,220,,,,,,,,
(1:4 mol:mol) calcium pterin [CaPterin],,,,,,,,,,,,,highly significant activity,1.2 ± 0.2,87.9 ± 14.6,14.1 ± 0.2,1.8 ± 0.3,106.5 ± 7.8,17.5 ± 3.8,increase
